According to PubChem BioAssay (NCI):
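A five-concentration, 48-hour dose response in 96-well plates underlies each endpoint, interpolated linearly between surrounding concentrations. GI50 is the concentration that inhibits growth by half. TGI: concentration producing complete growth inhibition.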

Key:
Test in all cases: NCI-60 cell line screen, 48 h
SK-MEL-2 melanoma = test system: SK-MEL-2 melanoma
RXF 393 renal = test system: RXF 393 renal
NCI-H226 lung = test system: NCI-H226 lung
HCT-116 colon = test system: HCT-116 colon
HOP-92 NSCLC = test system: HOP-92 NSCLC
SK-MEL-28 melanoma = test system: SK-MEL-28 melanoma
MOLT-4 leukemia = test system: MOLT-4 leukemia
OVCAR-4 ovarian = test system: OVCAR-4 ovarian
NCI-H522 lung = test system: NCI-H522 lung
NCI-H23 lung = test system: NCI-H23 lung

In the case of COc1cc(C(=O)/C=C/c2c(C)n([O-])c3ccc(C)cc3[n+]2=O)cc(OC)c1OC, the GI50 (SK-MEL-2 melanoma) is reported as 15 µM, the TGI (SK-MEL-2 melanoma) is reported as 31.2 µM and the GI50 (RXF 393 renal) is reported as 1.89 µM. The TGI (RXF 393 renal) was 3.91 µM, the GI50 (NCI-H226 lung) was 30.6 µM and the TGI (NCI-H226 lung) was over 100 µM. The GI50 (HCT-116 colon) was 1.54 µM, the TGI (HCT-116 colon) was 2.95 µM and the GI50 (HOP-92 NSCLC) was 5.56 µM. For the same compound, the TGI (HOP-92 NSCLC) was over 27.1 µM, the GI50 (SK-MEL-28 melanoma) was 2.41 µM and the TGI (SK-MEL-28 melanoma) was 6.54 µM. It also gave a GI50 (MOLT-4 leukemia) of 3.57 µM, a TGI (MOLT-4 leukemia) of over 29.8 µM and a GI50 (OVCAR-4 ovarian) of 6.68 µM. For the same compound, the TGI (OVCAR-4 ovarian) was 24 µM, the GI50 (NCI-H522 lung) was 0.741 µM and the TGI (NCI-H522 lung) was 2.29 µM. For the same compound, the GI50 (NCI-H23 lung) was 10.4 µM and the TGI (NCI-H23 lung) was 26.4 µM.
